The source of these data is patent publication US20260083769A1, “2-Aminopropane-1,3-Diol-Capped Cationic Peptoids for Nucleic Acid Delivery” (NUTCRACKER THERAPEUTICS, INC., priority 2022, published 2026).

Series [1] can be described thus: Percent encapsulated mRNA, RiboGreen assay. The format is physicochemical. Particulars: Table 5; delivery vehicle comprising the peptoid, Formulation D22, fLuc mRNA. Summed up:
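Modified RiboGreen fluorescence assay on Fluc mRNA formulations diluted to 500 ng/ml in Tris-EDTA. Samples were read with and without Triton X-100 lysis (2% for 10 min in one protocol). Percent encapsulation was derived from the fluorescence ratio of intact versus lysed particles.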

A short description of series [2]: RBC hemolysis as metric for fusogenicity. The format is cell-based. Particulars: sheep red blood cells (RBCs), 5% v/v, Table 5, delivery vehicle, 37° C. 45 min. The procedure, abridged: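 Sheep RBCs at 5% v/v in 20 mM citrate/140 mM NaCl pH 5.5 or PBS, exposed to LNPs at […] in well, 37 °C for 45 min. Supernatant absorbance at 425 nm; % hemolysis normalized to 2% Triton full lysis and buffer-only control.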

Series [3] in a line: Particle size and polydispersity (PDI) of delivery vehicles by dynamic light scattering. It is filed as physicochemical. Particulars: Table 5; delivery vehicle comprising the peptoid, Formulation D22, fLuc mRNA. The procedure, abridged:
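Dynamic light scattering of formulated samples diluted to 2 ng/μL in PBS. Size reported as hydrodynamic diameter (nm) from cumulant fit of the correlation function, with its polydispersity index.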

The mark [4] stands for this setting: pH 5, read-out: Hemolysis at pH 5.
[5] abbreviates: pH 7, read-out: Hemolysis at pH 7.

Where two headings read alike, the source gives them in different places. Where a SMILES comes first, the peptide text is derived from it. [ ]: non-standard residue; d: D form. N(2-ethylhexyl)Gly = CCCCC(CC)CNCC(=O)O; Gly(N-dodecyl) = CCCCCCCCCCCCNCC(=O)O; N(CH(CH2OH)2)Gly = O=C(O)CNC(CO)CO; NHexGly = CCCCCCNCC(=O)O

In the case of `CCCCCCCCCCCCN(CC(=O)N(CC(=O)N(CC(=O)N(CCCCCCCCCCCC)CC(=O)N(CC(N)=O)CC(CC)CCCC)CC(CC)CCCC)CC(CC)CCCC)C(=O)CN(CC(CC)CCCC)C(=O)CNC(CO)CO` (centres unmarked) [Compound 41] (H-[N(CH(CH2OH)2)Gly][N(2-ethylhexyl)Gly][Gly(N-dodecyl)][N(2-ethylhexyl)Gly][N(2-ethylhexyl)Gly][Gly(N-dodecyl)][N(2-ethylhexyl)Gly]-NH2), the “% Encapsulation” value in series [1] was determined as 94.2%. Also, the hemolysis at 45 min, 150 mM total lipid in series [2] (setting [4]) was found to be 4.5%. In addition, in series [2] (setting [5]), the hemolysis at 45 min, 150 mM total lipid worked out at 2.9%. For the same compound, in series [3], the PDI is 0.15 and the “Particle Size (nm)” value was found to be 75.7 nm.

With `CCCCCCCCCCCCN(CC(=O)N(CC(=O)N(CC(=O)N(CCCCCCCCCCCC)CC(=O)N(CC(=O)N(CC(N)=O)CC(CC)CCCC)CC(CC)CCCC)CC(CC)CCCC)CC(CC)CCCC)C(=O)CNC(CO)CO` (centres unmarked) [Compound 31] (H-[N(CH(CH2OH)2)Gly][Gly(N-dodecyl)][N(2-ethylhexyl)Gly][N(2-ethylhexyl)Gly][Gly(N-dodecyl)][N(2-ethylhexyl)Gly][N(2-ethylhexyl)Gly]-NH2), the “% Encapsulation” value in series [1] worked out at 86.9%. In series [2] (setting [4]), the hemolysis at 45 min, 150 mM total lipid is 5.8%. In addition, the hemolysis at 45 min, 150 mM total lipid in series [2] (setting [5]) worked out at 2%. Moreover, in series [3], the PDI was determined as 0.1 and the “Particle Size (nm)” value stood at 80.8 nm.

With `CCCCCCCCCCCCN(CC(=O)N(CC(N)=O)CC(CC)CCCC)C(=O)CN(CCCCCC)C(=O)CN(CC(CC)CCCC)C(=O)CN(CCCCCCCCCCCC)C(=O)CN(CCCCCC)C(=O)CNC(CO)CO` (centres unmarked) [Compound 34] (H-[N(CH(CH2OH)2)Gly][NHexGly][Gly(N-dodecyl)][N(2-ethylhexyl)Gly][NHexGly][Gly(N-dodecyl)][N(2-ethylhexyl)Gly]-NH2), the “% Encapsulation” value in series [1] was found to be 71.2%. Further, the hemolysis at 45 min, 150 mM total lipid in series [2] (setting [4]) is 11.8%; in series [2] (setting [5]) it was 27.6%. Further, the PDI in series [3] worked out at 0.093. Moreover, the “Particle Size (nm)” value in series [3] is 118.4 nm.

`CCCCCCN(CC(N)=O)C(=O)CN(CC(CC)CCCC)C(=O)CN(CC(CC)CCCC)C(=O)CN(CCCCCC)C(=O)CN(CC(CC)CCCC)C(=O)CN(CC(CC)CCCC)C(=O)CNC(CO)CO` (centres unmarked) [Compound 12] (H-[N(CH(CH2OH)2)Gly][N(2-ethylhexyl)Gly][N(2-ethylhexyl)Gly][NHexGly][N(2-ethylhexyl)Gly][N(2-ethylhexyl)Gly][NHexGly]-NH2): the “% Encapsulation” value in series [1] came out at 97.4%. For the same compound, in series [2] (setting [4]), the hemolysis at 45 min, 150 mM total lipid is 52.1%. The hemolysis at 45 min, 150 mM total lipid in series [2] (setting [5]) is 1.5%. Moreover, in series [3], the PDI is listed as 0.32 and the “Particle Size (nm)” value came to 91.4 nm.
